The NIST ThermoML archive (doi:10.1016/j.jct.2015.05.014)
± gives the expanded uncertainty stated by the source.

Experiment: activity coefficient (dimensionless); of the first substance listed, at infinite dilution; xn = mol fraction of the nth substance listed
Details: 100 kPa, Liquid, Chromatography, x1 = 0

Row | activity coefficient (308.15 K) | activity coefficient (318.15 K) | activity coefficient (328.15 K) | activity coefficient (338.15 K) | activity coefficient (348.15 K) | activity coefficient (358.15 K) | activity coefficient (368.15 K) | activity coefficient (378.15 K) | activity coefficient (388.15 K) | activity coefficient (398.15 K) | activity coefficient (408.15 K) | SMILES
1 | 52.1 ± 4.5 | 50.3 ± 4.4 | 48.2 ± 4.2 | 46.2 ± 4 | 44.8 ± 3.9 | 43.2 ± 3.7 | 41.9 ± 3.6 |  |  |  |  | CCCOCCC [dipropyl ether] + CC(O)C(=O)[O-].CC[N+]1(C)CCCC1
2 |  | 2.85 ± 0.25 | 2.94 ± 0.25 | 3.04 ± 0.26 | 3.14 ± 0.27 | 3.24 ± 0.28 | 3.36 ± 0.29 |  |  |  |  | c1ccccc1 [benzene] + CC(O)C(=O)[O-].CC[N+]1(C)CCCC1
3 | 22.4 ± 1.9 | 21.7 ± 1.9 | 20.7 ± 1.8 | 20.2 ± 1.7 | 19.7 ± 1.7 | 19.5 ± 1.7 | 18.9 ± 1.6 |  |  |  |  | C1=CCCCC1 [cyclohexene] + CC(O)C(=O)[O-].CC[N+]1(C)CCCC1
4 |  |  |  |  |  |  | 0.046 | 0.052 | 0.059 | 0.066 ± 0.03 | 0.072 ± 0.03 | O [water] + CC(O)C(=O)[O-].CC[N+]1(C)CCCC1
5 |  |  |  |  |  | 0.335 ± 0.036 | 0.361 ± 0.038 | 0.388 ± 0.039 | 0.421 ± 0.041 | 0.453 ± 0.043 | 0.486 ± 0.045 | CCCCO [butan-1-ol] + CC(O)C(=O)[O-].CC[N+]1(C)CCCC1
6 | 349 ± 30 | 326 ± 28 | 302 ± 26 | 284 ± 25 | 268 ± 23 | 252 ± 22 | 238 ± 21 |  |  |  |  | C=CCCCCCCCC [1-decene] + CC(O)C(=O)[O-].CC[N+]1(C)CCCC1
7 |  | 8.06 ± 0.7 | 8.06 ± 0.7 | 8.12 ± 0.7 | 8.19 ± 0.71 | 8.25 ± 0.71 | 8.4 ± 0.73 |  |  |  |  | CCCC(=O)CC [3-hexanone] + CC(O)C(=O)[O-].CC[N+]1(C)CCCC1
8 | 52.7 ± 4.6 | 48.6 ± 4.2 | 45 ± 3.9 | 42.6 ± 3.7 | 40.6 ± 3.5 | 38.4 ± 3.3 | 36.3 ± 3.1 |  |  |  |  | C1CCCCC1 [cyclohexane] + CC(O)C(=O)[O-].CC[N+]1(C)CCCC1
9 | 3.18 ± 0.27 | 3.43 ± 0.3 | 3.66 ± 0.32 | 3.95 ± 0.34 | 4.2 ± 0.4 | 4.46 ± 0.38 | 4.69 ± 0.4 |  |  |  |  | C#CCCC [1-pentyne] + CC(O)C(=O)[O-].CC[N+]1(C)CCCC1
10 | 334 ± 29 | 307 ± 27 | 275 ± 24 | 254 ± 22 | 236 ± 20 | 217 ± 19 | 200 ± 17 |  |  |  |  | CCCCCCCC [octane] + CC(O)C(=O)[O-].CC[N+]1(C)CCCC1
11 |  | 5.04 ± 0.43 | 5.14 ± 0.44 | 5.23 ± 0.45 | 5.32 ± 0.46 | 5.43 ± 0.47 | 5.56 ± 0.48 | 5.66 ± 0.49 |  |  |  | CCOC(C)=O [ethyl acetate] + CC(O)C(=O)[O-].CC[N+]1(C)CCCC1
12 | 46.2 ± 4 | 45.2 ± 3.9 | 43.9 ± 3.8 | 42.5 ± 3.7 | 41.6 ± 3.6 | 40.7 ± 3.5 | 39.7 ± 3.4 |  |  |  |  | CCOC(C)(C)C [2-ethoxy-2-methylpropane] + CC(O)C(=O)[O-].CC[N+]1(C)CCCC1
13 | 55.3 ± 4.8 | 53.6 ± 4.6 | 52 ± 4.5 | 50.1 ± 4.3 | 48.6 ± 4.2 | 47.2 ± 4.1 | 45.9 ± 4 |  |  |  |  | CC(C)OC(C)C [diisopropyl ether] + CC(O)C(=O)[O-].CC[N+]1(C)CCCC1
14 | 3.51 ± 0.3 | 3.54 ± 0.31 | 3.59 ± 0.31 | 3.62 ± 0.31 | 3.68 ± 0.32 | 3.74 ± 0.32 | 3.82 ± 0.33 |  |  |  |  | C1CCOC1 [tetrahydrofuran] + CC(O)C(=O)[O-].CC[N+]1(C)CCCC1
15 | 145 ± 13 | 136 ± 12 | 127 ± 11 | 120 ± 10 | 114 ± 10 | 108 ± 9 | 103 ± 9 |  |  |  |  | C=CCCCCCC [oct-1-ene] + CC(O)C(=O)[O-].CC[N+]1(C)CCCC1
16 |  | 7.09 ± 0.61 | 7.16 ± 0.62 | 7.22 ± 0.62 | 7.31 ± 0.63 | 7.39 ± 0.64 | 7.54 ± 0.65 |  |  |  |  | CCCCC(C)=O [2-hexanone] + CC(O)C(=O)[O-].CC[N+]1(C)CCCC1
17 |  |  |  |  |  | 0.174 ± 0.03 | 0.187 ± 0.03 | 0.201 ± 0.031 | 0.219 ± 0.031 | 0.234 ± 0.032 | 0.255 ± 0.033 | CCO [ethanol] + CC(O)C(=O)[O-].CC[N+]1(C)CCCC1
18 | 18.1 ± 1.6 | 18 ± 1.6 | 17.9 ± 1.5 | 17.9 ± 1.5 | 17.8 ± 1.5 | 17.7 ± 1.5 | 17.7 ± 1.5 |  |  |  |  | COC(C)(C)C [2-methoxy-2-methylpropane] + CC(O)C(=O)[O-].CC[N+]1(C)CCCC1
19 |  | 7.46 ± 0.64 | 7.56 ± 0.65 | 7.6 ± 0.66 | 7.74 ± 0.67 | 7.84 ± 0.68 | 8.01 ± 0.69 | 8.08 ± 0.7 |  |  |  | CCCC(=O)OC [methyl butanoate] + CC(O)C(=O)[O-].CC[N+]1(C)CCCC1
20 | 213 ± 18 | 196 ± 17 | 180 ± 16 | 167 ± 14 | 154 ± 13 | 144 ± 12 | 133 ± 12 |  |  |  |  | CCCCCCC [heptane] + CC(O)C(=O)[O-].CC[N+]1(C)CCCC1
21 | 5.14 ± 0.44 | 5.48 ± 0.47 | 5.79 ± 0.5 | 6.21 ± 0.54 | 6.54 ± 0.56 | 6.92 ± 0.6 | 7.24 ± 0.62 |  |  |  |  | C#CCCCC [1-hexyne] + CC(O)C(=O)[O-].CC[N+]1(C)CCCC1
22 |  | 2.95 ± 0.25 | 3.03 ± 0.26 | 3.1 ± 0.27 | 3.18 ± 0.27 | 3.25 ± 0.28 | 3.37 ± 0.29 | 3.45 ± 0.3 |  |  |  | COC(C)=O [methyl ethanoate] + CC(O)C(=O)[O-].CC[N+]1(C)CCCC1

Row | SMILES | activity coefficient (308.15 K) | activity coefficient (318.15 K) | activity coefficient (328.15 K) | activity coefficient (338.15 K) | activity coefficient (348.15 K) | activity coefficient (358.15 K) | activity coefficient (368.15 K) | activity coefficient (378.15 K) | activity coefficient (388.15 K) | activity coefficient (398.15 K) | activity coefficient (408.15 K)
23 | c1ccncc1 [pyridine] + CC(O)C(=O)[O-].CC[N+]1(C)CCCC1 |  | 1.26 ± 0.11 | 1.3 ± 0.11 | 1.36 ± 0.11 | 1.41 ± 0.12 | 1.46 ± 0.12 | 1.53 ± 0.13 |  |  |  | 
24 | Cc1ccccc1C [1,2-dimethylbenzene] + CC(O)C(=O)[O-].CC[N+]1(C)CCCC1 |  | 8.23 ± 0.71 | 8.33 ± 0.72 | 8.46 ± 0.73 | 8.57 ± 0.74 | 8.69 ± 0.75 | 8.9 ± 0.8 |  |  |  | 
25 | Cc1ccc(C)cc1 [1,4-dimethylbenzene] + CC(O)C(=O)[O-].CC[N+]1(C)CCCC1 |  | 10 ± 0.9 | 10.1 ± 0.9 | 10.3 ± 0.9 | 10.4 ± 0.9 | 10.5 ± 0.9 | 10.7 ± 0.9 |  |  |  | 
26 | Cc1ccccc1 [toluene] + CC(O)C(=O)[O-].CC[N+]1(C)CCCC1 |  | 5.36 ± 0.46 | 5.5 ± 0.47 | 5.62 ± 0.48 | 5.76 ± 0.5 | 5.89 ± 0.51 | 6.06 ± 0.52 |  |  |  | 
27 | CCC[N+](=O)[O-] [1-nitropropane] + CC(O)C(=O)[O-].CC[N+]1(C)CCCC1 |  | 1.75 ± 0.15 | 1.8 ± 0.15 | 1.86 ± 0.16 | 1.92 ± 0.16 | 1.98 ± 0.17 | 2.06 ± 0.18 |  |  |  | 
28 | Cc1cccc(C)c1 [1,3-dimethylbenzene] + CC(O)C(=O)[O-].CC[N+]1(C)CCCC1 |  | 10.1 ± 0.9 | 10.2 ± 0.9 | 10.4 ± 0.9 | 10.4 ± 0.9 | 10.5 ± 0.9 | 10.7 ± 0.9 |  |  |  | 
